Measurements published in patent US20090233926A1, “2-BENZIMIDAZOLYL-6-MORPHOLINO-4-PIPERIDIN-4-YLPYRIMIDINE DERIVATIVES AS PI3K AND MTOR INHIBITORS FOR THE TREATMENT OF PROLIFERATIVE DISORDERS” (AstraZeneca, priority 2006, published 2009).

Key:
[1] = test system: phosphorylation of Serine 473 in Akt; assay: In vitro phospho-Ser473 Akt assay in MDA-MB-468 cells, Test (c); assay type: cell-based; details: Homo sapiens, read-out: IC50, inhibition of phosphorylation of Serine 473 in Akt
Method: This assay determines the ability of test compounds to inhibit phosphorylation of Serine 473 in Akt as assessed using Acumen Explorer technology (TTP LabTech Limited, Royston, Herts, SG8 6EE, UK), a plate reader that can be used to rapidly quantitate features of images generated by laser-scanning.
A MDA-MB-468 human breast adenocarcinoma cell line (LGC Promochem, Teddington, Middlesex, UK, Catalogue No. HTB-132) was routinely maintained at 37° C. with 5% CO2 up to a confluency of 70-90% in DMEM containing 10% FCS and 1% L-glutamine.
For the assay, the cells were detached from the culture flask using ‘Accutase’ (Innovative Cell Technologies Inc., San Diego, Calif., USA; Catalogue No. AT104) using standard tissue culture methods and resuspended in media to give 5.5×10^4 cells per ml. Aliquots (90 μl) were seeded into each of the inner 60 wells of a black ‘Costar’ 96-well plate (Corning Inc., NY, USA; Catalogue No. 3904) to give a density of ˜5000 cells per well. Aliquots (90 μl) of culture media were placed in the outer wells to prevent edge effects. [An alternative cell handling procedure involved the maintenance of the cells in a ‘SelecT’ robotic device (The Automation Partnership, Royston, Herts SG8 5WY, UK). Cells were resuspended in media to give 5×10^4 cells per ml. Aliquots (100 μl) were seeded into the wells of a black ‘Costar’ 96-well plate.] […]

p110α Type Ia human PI3K = molecular target: T1, p110α Type Ia human PI3K (Homo sapiens, UniProt P42336); assay: In vitro PI3K enzyme assay (AlphaScreen), Test (a); assay type: biochemical; details: read-out: IC50 versus p110α Type Ia human PI3K
T1 construct: full length DNA of each of the p110α, p110β and p110δ Type Ia human PI3K p110 isoforms; 6-His; made in house; Grp1 PH domain in E. coli
T1 sequence (P42336 whole entry, the tested form may be a part, canonical isoform): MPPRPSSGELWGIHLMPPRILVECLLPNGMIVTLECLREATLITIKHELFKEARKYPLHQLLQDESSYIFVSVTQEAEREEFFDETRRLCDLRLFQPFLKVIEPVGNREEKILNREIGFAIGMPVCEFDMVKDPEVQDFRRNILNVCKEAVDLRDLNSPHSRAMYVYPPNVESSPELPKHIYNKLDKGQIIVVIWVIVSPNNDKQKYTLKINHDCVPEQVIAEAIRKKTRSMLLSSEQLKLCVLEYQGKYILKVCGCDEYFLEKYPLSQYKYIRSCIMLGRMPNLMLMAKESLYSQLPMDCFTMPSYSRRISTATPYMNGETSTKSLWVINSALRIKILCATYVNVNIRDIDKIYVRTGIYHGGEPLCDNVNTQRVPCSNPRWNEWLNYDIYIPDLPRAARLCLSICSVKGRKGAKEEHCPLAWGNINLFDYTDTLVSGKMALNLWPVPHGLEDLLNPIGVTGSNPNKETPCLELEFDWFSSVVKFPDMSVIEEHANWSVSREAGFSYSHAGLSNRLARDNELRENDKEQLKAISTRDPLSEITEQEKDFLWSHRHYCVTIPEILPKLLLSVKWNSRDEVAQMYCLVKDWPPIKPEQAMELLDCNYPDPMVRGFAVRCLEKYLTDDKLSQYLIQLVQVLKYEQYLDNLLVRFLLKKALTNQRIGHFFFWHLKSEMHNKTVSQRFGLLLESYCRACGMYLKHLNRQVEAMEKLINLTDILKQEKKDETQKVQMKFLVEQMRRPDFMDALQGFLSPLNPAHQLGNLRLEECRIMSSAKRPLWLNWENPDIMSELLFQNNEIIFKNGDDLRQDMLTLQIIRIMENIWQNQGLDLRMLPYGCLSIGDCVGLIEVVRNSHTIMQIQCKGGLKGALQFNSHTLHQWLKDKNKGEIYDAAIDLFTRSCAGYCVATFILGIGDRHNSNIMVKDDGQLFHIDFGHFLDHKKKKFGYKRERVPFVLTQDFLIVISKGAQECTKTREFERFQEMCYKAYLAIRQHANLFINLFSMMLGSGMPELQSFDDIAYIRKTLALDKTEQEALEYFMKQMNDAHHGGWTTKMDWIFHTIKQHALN
T1 sequence (P27986 whole entry partner, the tested form may be a part, canonical isoform): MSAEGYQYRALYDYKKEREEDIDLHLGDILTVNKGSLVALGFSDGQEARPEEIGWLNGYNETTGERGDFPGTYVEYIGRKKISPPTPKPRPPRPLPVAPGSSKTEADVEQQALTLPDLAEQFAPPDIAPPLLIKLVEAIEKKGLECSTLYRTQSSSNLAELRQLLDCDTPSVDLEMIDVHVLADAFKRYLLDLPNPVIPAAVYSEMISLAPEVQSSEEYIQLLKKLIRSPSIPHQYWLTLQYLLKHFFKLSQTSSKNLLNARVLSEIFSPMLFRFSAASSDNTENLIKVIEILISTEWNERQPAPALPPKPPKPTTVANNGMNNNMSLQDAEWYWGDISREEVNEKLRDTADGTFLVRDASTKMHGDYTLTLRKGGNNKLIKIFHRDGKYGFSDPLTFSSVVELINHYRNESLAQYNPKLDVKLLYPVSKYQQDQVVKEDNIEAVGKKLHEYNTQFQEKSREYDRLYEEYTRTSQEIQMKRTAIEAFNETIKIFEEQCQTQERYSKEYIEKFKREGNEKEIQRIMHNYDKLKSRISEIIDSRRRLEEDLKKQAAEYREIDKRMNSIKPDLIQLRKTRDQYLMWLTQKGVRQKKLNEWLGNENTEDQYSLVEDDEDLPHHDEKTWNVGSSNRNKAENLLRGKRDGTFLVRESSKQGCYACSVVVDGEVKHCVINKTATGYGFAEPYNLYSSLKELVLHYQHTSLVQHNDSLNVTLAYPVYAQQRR
From the text: The assay used AlphaScreen technology (Gray et al., Analytical Biochemistry, 2003, 313: 234-245) to determine the ability of test compounds to inhibit phosphorylation by recombinant Type I PI3K enzymes of the lipid PI(4,5)P2.
DNA fragments encoding human PI3K catalytic and regulatory subunits were isolated from cDNA libraries using standard molecular biology and PCR cloning techniques. The selected DNA fragments were used to generate baculovirus expression vectors. In particular, full length DNA of each of the p110α, p110β and p110δ Type Ia human PI3K p110 isoforms (EMBL Accession Nos. HSU79143, S67334, Y10055 for p110α, p110β and p110δ respectively) were sub-cloned into a pDEST10 vector (Invitrogen Limited, Fountain Drive, Paisley, UK). The vector is a Gateway-adapted version of Fastbac 1 containing a 6-His epitope tag. […]
Biotinylated-DiC8-PI(3,4,5)P3 (50 nM; Cell Signals Inc., Catalogue No. 107), recombinant purified GST-Grp1 PH protein (2.5 nM) and AlphaScreen Anti-GST donor and acceptor beads (100 ng; Packard Bioscience Limited, Station Road, Pangbourne, Berkshire, UK, Catalogue No. 6760603M) were added and the assay plates were left for about 5 to 20 hours at room temperature in the dark. The resultant signals arising from laser light excitation at 680 nm were read using a Packard AlphaQuest instrument. […]

IC50 [1] [nM]	IC50 (p110α Type Ia human PI3K) [nM]	SMILES
~100	~100	NCC(=O)N1CC=C(c2cc(N3CCOCC3)nc(-n3c(C(F)F)nc4ccccc43)n2)CC1 [Example 1, 2-(2-difluoromethylbenzimidazol-1-yl)-4-(N-glycyl-1,2,3,6-tetrahydropyridin-4-yl)-6-morpholinopyrimidine]
~100	~300	NCC(=O)N1CCC(c2cc(N3CCOCC3)nc(-n3c(C(F)F)nc4ccccc43)n2)CC1 [Example 2, 2-(2-difluoromethylbenzimidazol-1-yl)-4-(N-glycylpiperidin-4-yl)-6-morpholinopyrimidine]
